{"source": "patent US20150023920A1", "about": "“NOVEL COMPOSITIONS AND METHODS FOR PREVENTING OR TREATING CANCER METASTASIS” (Drexel University, priority 2012, published 2015)", "key": {"[1]": {"system": "COX-2 expression in human bone Mesenchymal Stem Cells (MSCs)", "assay": "COX-2 expression in human MSCs exposed to PC3-ML conditioned medium (Western blot)", "type": "cell-based", "conditions": "Anakinra 10 μg/ml pre-treatment 30 minutes; MSCs exposed 48 hours to PC3-ML conditioned medium", "method": "Bone marrow-derived Human Mesenchymal Stem cells (MSCs) (Lonza, Allendale, N.J.) were used between passage 5 and 8 and cultured in MSC growth medium (α-MEM (Invitrogen) supplemented with 10% FBS, 1 ng/ml bFGF (R&D Systems, Minneapolis, Minn.), and 0.1% gentamicin).\n(§1) Cell lysates were obtained and SDS-PAGE and Western Blot analysis performed as previously described, with few modifications. Membranes were blotted with antibodies targeting PDGFRα, PDGFRβ, IL1-β (SC-7884, Santa Cruz, Dallas, Tex.), Actin (A-2066, Sigma-Aldrich, St. Louis, Mo.), COX-2 (ab15191, AbCam, Cambridge, UK) Elafin (SC-20637, Santa Cruz) and GAPDH (DI6H11, Cell Signaling Technology, Beverly, Mass.). Primary antibody binding was detected using an HRP-conjugated secondary antibody (Pierce). Chemiluminescence signals were obtained using SuperSignal West Femto reagents (Pierce) and detected with the Fluorochem 8900 imaging system and relative software (Alpha Innotech).\nConditioned media were obtained according to Li et al., 2012, Cancer Disc. 2:840-55. In brief, 7.5×10^5 PC3-ML cells were plated in 15 ml of DMEM supplemented with 10% fetal bovine serum and 0.1% gentamicin and cultured for five days. The medium from each dish was then collected and centrifuged at 2000 rpm for 10 minutes and then used fresh as described below. […]"}, "[2]": {"system": "production of interleukin-1β", "conditions": "cited from earlier work"}, "[3]": {"system": "mouse models of acute gout", "conditions": "in vivo; cited from earlier work"}, "IL-1β in PC3-ML cells": {"system": "IL-1β in PC3-ML cells", "assay": "IL-1β silencing by stable shRNA transduction in PC3-ML cells (Western blot, ELISA)", "type": "cell-based, human", "conditions": "stable transduction of shRNA", "method": "Mission TRC lentiviral shRNA vectors (Sigma-Aldrich) were used to knock down IL1-β. The following shRNA sequence was used:\nLentiviral particles were used to infect […] cell cultures, overnight in the presence of 8 μg/ml polybrene (Millipore). The successful infected cells were selected for the ability to proliferate in media containing G418 ([…]). The resulting cells were characterized by Western blot analysis using an antibody against IL1β.\nas §1\nThe concentrations of IL-1β and CXCL6 were measured by ELISA as described in the manufacturers' protocols. […] The supernatant was then collected and the protein concentration was measured using Quantikine kits (R&D systems)."}, "[4]": {"system": "PC3-ML bone-metastatic prostate cancer cells", "assay": "Animal model of metastasis, intracardiac inoculation of cancer cells", "type": "in vivo, mouse", "conditions": "mice inoculated via systemic arterial circulation with shRNA-transduced PC3-ML cells, four weeks post-inoculation", "method": "Five week-old male immunocompromised mice (CBI 7-SCRF) were obtained from Taconic and housed in a germ-free barrier. At six weeks of age, mice were anesthetized with 100 mg/kg ketamine and 20 mg/kg xylazine and successively inoculated in the left cardiac ventricle with cancer cells (5×10^4 in 100 μl of serum-free DMEM/F12). Cell inoculation was performed using a 30-gauge needle connected to a 1 ml syringe. The delivery of the cell suspension in the systemic blood circulation was validated by the co-injection of blue-fluorescent 10 μm polystyrene beads (Invitrogen-Molecular Probes). Animals were randomly assigned to different experimental groups and sacrificed at specified time points following inoculation. Organs were harvested and prepared as described below and tissue sections inspected blindly for metastatic lesions. The homogeneous and numerically-consistent distribution of the beads in adrenal glands and lungs collected at necropsy and inspected by fluorescence microscopy were used as discrimination criteria for the inclusion of animals in the studies. […]\nBright-field and fluorescent images of skeletal metastases were acquired using an Olympus stereomicroscope coupled to an Olympus DT70 CCD color camera. Digital images were analyzed with ImageJ software and calibrated for measurement by obtaining a pixel to millimeter ratio. […]"}, "[5]": {"system": "other members of the interleukin-1 family, including interleukin-1 alpha", "conditions": "cited from earlier work"}}, "note": "Entries after “also recorded” stand apart in the source; their conditions may differ.", "data": [{"compound": "Anakinra: recombinant, non-glycosylated version of human IL-1 receptor antagonist prepared from genetically modified E. coli", "values": [{"measurement": "Increase in COX-2 expression in MSCs induced by PC3-ML conditioned medium", "setting": "[1]", "result": "completely prevent; also recorded: inhibited"}]}, {"compound": "CSc1ccc(-c2nn(Cc3ccccc3)c(=O)cc2-c2ccc(Cl)cc2)cc1", "note": "[K-832, 2-benzyl-5-(4-chlorophenyl)-6-[4-(methylthio)phenyl]-2H-pyridazin-3-one]", "values": [{"measurement": "inhibitory activity against production of interleukin-1β", "setting": "[2]", "result": "high inhibitory activity"}]}, {"compound": "XOMA-052: potent anti-IL-1β humanized neutralizing antibody", "values": [{"measurement": "activity in mouse models of acute gout", "setting": "[3]", "result": "active"}]}, {"compound": "5′-CGGCCAGGATATAACTGACTT-3′ (listed as DNA, chemistry not given here) [shRNA, Mission TRC lentiviral shRNA used to knock down IL1-β in PC3-ML cells]", "values": [{"measurement": "IL-1β expression in PC3-ML cells after silencing", "setting": "IL-1β in PC3-ML cells", "result": "expression levels lower than PC3-N cells"}, {"measurement": "reduction of size of bone-metastatic tumors", "setting": "[4]", "result": "approximately 70%"}]}, {"compound": "Canakinumab: human monoclonal antibody targeted at interleukin-1 beta", "values": [{"measurement": "cross-reactivity with other members of the interleukin-1 family, including interleukin-1 alpha", "setting": "[5]", "result": "no cross-reactivity"}]}]}
